Like-named read-outs stand apart in the source and are kept apart here.

A word on the Ki: it is a dissociation constant, usually derived from enzyme kinetics or from competition with a known ligand. The inhibition is the drop in the measured response relative to a control, in per cent. One may read the IC50 as the concentration that inhibits the measured activity by half. A high value points to weaker potency.

Experiment [1] has as its target T1, AmpC β-lactamase (Escherichia coli, UniProt P00811).
T1 construct: made in house
As to the kind of experiment: biochemical. The class given is biochemical. How it is done: FIG. 18. Representative IC50 curves. […] IC50 curves were obtained by measuring rates (in duplicates) at different inhibitor concentrations (x-axis) and by determining the residual activity (y-axis, in percentage). IC50 values were determined by non-linear regression and Ki values calculated using GraphPad software assuming competitive inhibition.
Sulfonamidomethaneboronic acids were dissolved in 100% DMSO at a concentration of 100 mM; more diluted stocks were prepared as necessary. […] The enzyme was expressed and purified as described (Usher, K. C. et al., Biochemistry 1998, 37, 16082-16092) and CENTA was purchased from Tydock Pharma.
Kinetic measurements were run at room temperature in 50 mM sodium-cacodylate pH 6.5 in the presence of 0.01% Triton-X to prevent non-specific inhibition via compound aggregation. […] (Kettner, C. A. and Shenvi, A. B., J. Biol. Chem. 1984, 259, 15106-15114) Reactions were performed in 1 mL cuvettes with 60 μM CENTA and initiated by adding 1.2 nM enzyme. […] (Weston, G. S. et al., J. Med. Chem. 1998, 41, 4577-4586) The first 180 sec of each reaction were used to measure initial rates. IC50 values were obtained by fitting binding data to a sigmoidal dose-response equation using GraphPad Prism (GraphPad software, Inc). Ki values were determined by the use of Cheng-Prusoff equation. (Cheng, Y. and Prusoff, W. H., Biochem. Pharmacol. 1973, 22, 3099-3108)

A further experiment has as its system Elastase. Put plainly: Elastase inhibition. The class given is biochemical. To be noted: Table 4h, Elastase vs AmpC. The text has this:
(§1) To assess the selectivity of the new molecules we determined Ki values against three common serine proteases, Trypsin, Elastase and α-Chymotrypsin, as well as that of a class A β-lactamase, CTX-M-9 (Table 10) (Pouvreau L, et al. (1998), FEBS Lett 423:167-172; Del Mar E G, et al. (1980), Biochemistry 19:468-472; Rodriguez-Martinez J A, et al. (2009), Biotechnol Lett 31:883-887; Chen Y, et al. (2005), J Mol Biol 348:349-362).

Experiment [2] addresses T2, α-chymotrypsin (bovine pancreatic) (Bos taurus, UniProt P00766).
T2 construct: purchased Sigma-Aldrich
Put plainly: α-Chymotrypsin inhibition. The class given is biochemical. How it is done:
α-Chymotrypsin assays were performed in 50 mM Tris buffer pH 7.5 with 0.01% Triton-X. Inhibitor and 0.001 mg/mL enzyme were incubated at their final concentration for 10 min before the reaction was initiated by the addition of 200 μM N-succinyl-Ala-Ala-Pro-Phe p-nitroanilide and monitored at 410 nm.
as §1

The subject of experiment [3] is clinical strains resistant to third-generation cephalosporins. As to the kind of experiment: MIC distribution of third-generation cephalosporins alone or with compounds over clinical strains. The class given is cell-based. How it is done:
The anti-resistance activity of inhibitors was investigated by the determination of the minimum inhibitory concentrations (MICs) of the β-lactam/inhibitor combination necessary to inhibit the growth of clinically-isolated bacteria resistant to third-generation cephalosporins via expression of class A or class C β-lactamases (Table 6).
Susceptibility testing was performed and interpreted following the guidelines of CLSI. (Clinical and Laboratory Standards Institute, Performance standards for antimicrobial susceptibility testing, 20th Informational Supplement, M100-S20 2010) The compounds were dissolved in 50% DMSO, and dilutions were performed using Muller-Hinton medium. An adequate final concentration was obtained to determine the minimum inhibitory concentrations (MICs). The concentration of DMSO was maintained below 5%. The inhibitors were tested for synergy with the third-generation β-lactams ceftazidime and cefotaxime against several clinical bacteria. The ratio of β-lactams to inhibitors was 1:4. Each value reported reflects the average of three independent experiments. […] The Friedman's test and the Wilcoxon signed rank test were used to compare MIC values. Statistical significance was established at p<0.05.

A further experiment deals with CTX-M-9 β-lactamase (Escherichia coli, UniProt Q9L5C8). Put plainly: biochemical. The class given is biochemical. How it is done:
Reactions were initiated by the addition of 0.3 nM enzyme and monitored at 405 nm.
as §1

The target in experiment [4] is T1, AmpC β-lactamase. The class given is biochemical.
In experiment [5] the target is T3, Trypsin (UniProt P00760).
T3 construct: IC50 (Estimated from single concentration measurement); Ki
T3 sequence (P00760 1-246): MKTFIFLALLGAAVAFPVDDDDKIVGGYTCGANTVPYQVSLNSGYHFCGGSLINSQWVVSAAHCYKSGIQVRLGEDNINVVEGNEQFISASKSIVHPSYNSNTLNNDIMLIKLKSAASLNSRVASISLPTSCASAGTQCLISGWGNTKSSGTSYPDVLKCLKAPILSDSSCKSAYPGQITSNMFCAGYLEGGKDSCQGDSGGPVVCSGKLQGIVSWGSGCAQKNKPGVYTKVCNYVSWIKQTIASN
As to the kind of experiment: Trypsin inhibition. The class given is biochemical. To be noted: Table 10, Trypsin.
Text: as §1

Experiment [6] deals with T3, Trypsin. Put plainly: Trypsin inhibition. The class given is biochemical.
Experiment [7] has as its system Trypsin. Put plainly: Trypsin inhibition. To be noted: Table 4h, Trypsin vs AmpC. The class given is biochemical.
Setting [8] is: third-generation cephalosporins in combination with the compound.

T1 sequence (P00811 20-377): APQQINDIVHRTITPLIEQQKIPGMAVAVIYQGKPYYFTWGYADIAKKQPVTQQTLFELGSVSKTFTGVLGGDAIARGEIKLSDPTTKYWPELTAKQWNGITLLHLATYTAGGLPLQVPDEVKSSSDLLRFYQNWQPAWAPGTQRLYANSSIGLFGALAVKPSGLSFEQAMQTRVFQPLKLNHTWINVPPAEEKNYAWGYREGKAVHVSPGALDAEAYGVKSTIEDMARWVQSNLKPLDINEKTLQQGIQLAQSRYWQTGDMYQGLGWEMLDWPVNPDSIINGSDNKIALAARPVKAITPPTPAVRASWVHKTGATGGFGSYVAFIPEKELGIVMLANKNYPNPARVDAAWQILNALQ
Chain of CTX-M-9 β-lactamase (Q9L5C8 29-291): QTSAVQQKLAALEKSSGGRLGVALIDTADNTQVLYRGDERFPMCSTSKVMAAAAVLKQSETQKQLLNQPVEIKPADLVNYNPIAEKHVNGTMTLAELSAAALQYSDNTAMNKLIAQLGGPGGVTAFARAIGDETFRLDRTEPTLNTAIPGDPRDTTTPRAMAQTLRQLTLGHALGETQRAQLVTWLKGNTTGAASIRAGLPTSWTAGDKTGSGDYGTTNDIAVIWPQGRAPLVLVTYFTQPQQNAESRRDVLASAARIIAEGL

In turn, `Cc1ccc(S(=O)(=O)N(C)CB(O)O)cc1` [CR14] displayed a Ki at AmpC β-lactamase [1] (Ki Vs AmpC, Table 7) of 0.63 µM.
Take `Cc1ccc(S(=O)(=O)N(CB(O)O)C(C)(C)C)cc1` [CR17]: the affinity at AmpC β-lactamase [1] (Ki Vs AmpC, Table 7) corresponds to a Ki of 2.5 µM.
At AmpC β-lactamase [1] (Ki Vs AmpC, Table 7), `CC(C)(C)N(CB(O)O)S(=O)(=O)Cc1ccccc1` [CR22] displayed a Ki of 5.1 µM.
With `O=S(=O)(NCB(O)O)c1ccc(-c2nnn[nH]2)cc1` [CR157, [4-(3-tetrazol-5-yl)benzensulfonylamino]methaneboronic acid], the “Selectivity vs AmpC (comparison of IC50 values)” value in the experiment on Elastase is listed as 31309; in experiment [2] (Table 4h, Chymotrypsin vs AmpC) it was 145161; at CTX-M-9 β-lactamase (Table 4h, CTX-M-9 vs AmpC), 1694; with Trypsin [7] it was 306452. Besides, the activity at 100 µM in [2] (Table 4b, 100 μM inhibitor, read-out: Percentage activity with 100 μM inhibitor) was found to be 90%. In addition, the potency estimated from few doses is 900 µM in experiment [2] (Table 4e, read-out: IC50 (Estimated from single concentration measurement)); 6 µM at CTX-M-9 β-lactamase (read-out: IC50 (Estimated from single concentration measurement)); 1900 µM on Trypsin [6] (read-out: IC50 (Estimated from single concentration measurement), Table 4e). The Ki is 224 µM in experiment [2] (Table 10, α-Chymotrypsin); 2.5 µM at CTX-M-9 β-lactamase (Table 8, read-out: Ki vs CTX-M-9); 0.0008 to 0.0013 µM on AmpC β-lactamase [1] (Ki); 0.0012 µM on AmpC β-lactamase [1] (Ki (from multi- or single concentration measurements), Table 4g); 0.0012 µM at AmpC β-lactamase [1] (Ki Vs AmpC, Table 7); 0.0012 µM on AmpC β-lactamase [1] (Ki vs AmpC, Table 8). Also, the Ki on AmpC β-lactamase [1] (Ki, Table 5) was found to be 0.0012 µM; on AmpC β-lactamase [1] (Ki, Table 10, AmpC), 0.0012 µM; at Trypsin [5], 350 µM. Besides, the inhibition at 100 µM in experiment [2] (read-out: Percentage inhibition with 100 μM inhibitor) was found to be 10%. In addition, the “clinical isolates for which MICs dropped into the susceptible range (MICs≦1 μg/mL)” value in [3] (cephalosporins combined with the compound) is listed as 25%. For the same molecule, in experiment [3] (setting [8]), the “MIC 25% percentile” value turned out to be 1.5 µg/mL. In experiment [3] (setting [8]), the “MIC 75% percentile” value came to 4.0 µg/mL. Also, the IC50 at CTX-M-9 β-lactamase was found to be 10.5 µM; against AmpC β-lactamase [1], 0.0062 µM. At CTX-M-9 β-lactamase (read-out: Percentage inhibition with 16 μM inhibitor), the inhibition at 16 µM is 73%. For the same molecule, the type of inhibition result at AmpC β-lactamase [4] (Lineweaver-Burk analysis, competition with substrate CENTA) is listed as “competitive”. Moreover, on AmpC β-lactamase [4] (enzyme incubation and dilution experiments), the “time dependence of inhibition (incubation effect, off-rate)” value is “incubation effect owing to slow off-rates”. The Ligand efficiency on AmpC β-lactamase [1] (Table 5) is recorded as 0.63. On Trypsin [6] (Table 4b, 100 μM inhibitor), the “Percentage activity with 100 μM inhibitor” value is 95. Further, the “Percentage inhibition with 100 μM inhibitor” value on Trypsin [6] (Table 4c, 100 μM inhibitor) came to 5.
For the molecule `N#Cc1ccc(S(=O)(=O)NCB(O)O)cc1` [CR162, [4-cyanobenzensulfonylamino]methaneboronic acid], the Ki at AmpC β-lactamase [1] (Ki Vs AmpC, Table 7) was found to be 0.31 µM; on AmpC β-lactamase [1] (Ki vs AmpC, Table 8), 0.31 µM.
For the molecule `N#Cc1ccc(S(=O)(=O)NCB(O)O)cn1` [CR163, [6-cyanopyridin-3-sulfonylamino]methaneboronic acid hydrocloride], the Ki was found to be 0.27 µM on AmpC β-lactamase [1] (Ki Vs AmpC, Table 7) and 0.27 µM on AmpC β-lactamase [1] (Ki vs AmpC, Table 8).
As to `CC(C)[C@H](NS(=O)(=O)Cc1ccccc1)B(O)O` [CR173, (1R)-1-(Phenylmethanesulfonylamino)-2-methylpropaneboronic acid], the Ki at AmpC β-lactamase [1] (Ki Vs AmpC, Table 7) is 13 µM.
At AmpC β-lactamase [1] (Ki Vs AmpC, Table 7), `CC(C)[C@H](NS(C)(=O)=O)B(O)O` [CR175, (1R)-1-(Methylsulfonylamino)-2-methylpropaneboronic acid] came in with a Ki of 100 µM.
Regarding `CC1(C)OB(c2ccccc2NS(=O)(=O)Cc2ccccc2)OC1(C)C` [CR180, Pinacol 2-(phenylmethanesulfonylamino)phenylboronate], the Ki on AmpC β-lactamase [1] (Table 7, read-out: Ki Vs AmpC) came to 0.2 µM.
The same measure, in the same setting: for `CC1(C)OB(c2ccccc2NS(C)(=O)=O)OC1(C)C` [CR181, Pinacol 2-(methylsulfonylamino)phenylboronate] the value was 0.4 µM.
`CS(=O)(=O)NCB(O)O` [Compound 3, Pinacol(methanesulfonylamino)methaneboronate]: at AmpC β-lactamase [1], the Ligand efficiency stood at 0.91. In addition, the Ki at AmpC β-lactamase [1] (Ki vs AmpC, Table 8) worked out at 0.8 µM; on AmpC β-lactamase [1] (read-out: Ki) it was 0.789 µM. For the same molecule, on AmpC β-lactamase [1] (ratio of Ki values), the “improvement of potency compared to the carboxamide analog” value is 23 fold.
As for `O=[N+]([O-])c1cccc(CS(=O)(=O)NCB(O)O)c1` [Compound 6], the Ki at AmpC β-lactamase [1] (Table 7, read-out: Ki Vs AmpC) was determined as 0.189 µM.
For `COC(=O)c1ccc(CS(=O)(=O)NCB(O)O)cc1` [Compound 8], the Ki on AmpC β-lactamase [1] (Table 7, read-out: Ki Vs AmpC) stood at 0.12 µM.
Take `CCOc1ccc2ccccc2c1S(=O)(=O)NCB(O)O` [Compound 11, (2-Ethoxy-naphthalene-1-sulfonylamino)methaneboronic acid]: the Ki at AmpC β-lactamase [1] (read-out: Ki) was determined as 0.67 µM.
With `O=S(=O)(Cc1ccccc1)N[C@@H](Cc1ccccc1)B(O)O` [Compound 16, (1R)-1-(phenylmethanesulfonylamino)-2-phenylethaneboronic acid], the Ki at AmpC β-lactamase [1] (Table 1, read-out: Ki) turned out to be 3.72 µM; on AmpC β-lactamase [1] (Table 7, read-out: Ki Vs AmpC), 3.72 µM.
With `O=C(Cc1cccs1)N[C@@H](Cc1cccc(C(=O)O)c1)B(O)O` [Compound 17c, reference compound], the Ki at AmpC β-lactamase [1] (Table 1, read-out: Ki) came to 0.039 µM.
Turning to `C[C@H](NS(C)(=O)=O)B(O)O` [GBS32, (1R)-1-(Methylsulfonylamino)-1-ethaneboronic acid], affinity at AmpC β-lactamase [1] (Ki Vs AmpC, Table 7) was put at a Ki of 0.65 µM.
In the case of `C[C@H](NS(=O)(=O)Cc1ccccc1)B(O)O` [GBS34, (1R)-1-(Phenylmethanesulfonylamino)-1-ethaneboronic acid], at AmpC β-lactamase [1] (Ki Vs AmpC, Table 7), the Ki came to 0.31 µM.
For the molecule `O=C(Cc1cccs1)N[C@H](B(O)O)c1cccc(C(=O)O)c1` [SM23, reference compound], at AmpC β-lactamase [1] (Table 5), the Ligand efficiency was found to be 0.55.
Turning to “Pinacol(3-cyanopropane-1-sulfonylamino)methaneboronate [CR135]”, the Ki at AmpC β-lactamase [1] (Table 7, read-out: Ki Vs AmpC) turned out to be 0.2 µM.
Take “Pinacol(isopropylsulfonylamino)methaneboronate [GBS22]”: on AmpC β-lactamase [1] (Table 7, read-out: Ki Vs AmpC), the Ki turned out to be 0.1 µM.

These data come from patent US9371337B2, “β-lactamase inhibitors” (The Regents of the University of California, priority 2011, dated 2016).
